Molecular target: T1, Menin MLL 4-43 (Homo sapiens, UniProt O00255)
T1 sequence (O00255 1-610): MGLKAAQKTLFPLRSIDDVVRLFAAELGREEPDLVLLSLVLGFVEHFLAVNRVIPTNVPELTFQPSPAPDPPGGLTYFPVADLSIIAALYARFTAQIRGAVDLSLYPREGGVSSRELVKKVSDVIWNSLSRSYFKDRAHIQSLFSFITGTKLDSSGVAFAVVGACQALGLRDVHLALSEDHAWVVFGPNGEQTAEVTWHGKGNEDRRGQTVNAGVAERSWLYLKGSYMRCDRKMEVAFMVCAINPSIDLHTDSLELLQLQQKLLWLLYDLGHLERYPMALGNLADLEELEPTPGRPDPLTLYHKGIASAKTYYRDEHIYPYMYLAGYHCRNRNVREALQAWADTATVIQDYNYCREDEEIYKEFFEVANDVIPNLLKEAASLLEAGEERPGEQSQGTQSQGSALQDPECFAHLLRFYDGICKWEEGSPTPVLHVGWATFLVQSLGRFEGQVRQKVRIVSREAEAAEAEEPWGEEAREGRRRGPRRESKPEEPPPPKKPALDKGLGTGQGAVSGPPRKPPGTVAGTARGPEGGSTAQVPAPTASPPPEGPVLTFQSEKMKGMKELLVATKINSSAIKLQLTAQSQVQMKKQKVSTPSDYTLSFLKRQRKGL
Assay: Fluorescence polarization (FP) competition assay of the menin-MLL interaction
Format: binding
Details: fluorescence polarization assay; read-out: Menin MLL 4-43 IC50

IC50 [nM] | SMILES
< 50 | COCCNS(=O)(=O)N1CCN([C@@H](C)Cn2c(C#N)cc3c(C)c(CN4CCC(Nc5ncnc6sc(CC(F)(F)F)cc56)CC4)ccc32)CC1 [Compound 123]
> 1000 | Cc1c(CN2CCC(Nc3ncnc4sc(CC(F)(F)F)cc34)CC2)ccc2c1cc(C#N)n2CC(CO)N1CCN(S(C)(=O)=O)CC1 (centres unmarked) [Compound 62]
< 50 | C=CC(=O)Nc1ccc(C(C)Cn2c(C#N)cc3c(C)c(CN4CCC(Nc5ncnc6sc(CC(F)(F)F)cc56)CC4)ccc32)cn1 (centres unmarked) [Compound 93]
50 to 250 | Cc1c(CN2CCC(Nc3ncnc4sc(CC(F)(F)F)cc34)CC2)ccc2c1cc(C#N)n2C[C@H](C)N1CCN(C(C)C(N)=O)CC1 (some centres unmarked) [Compound 156]
50 to 250 | Cc1c(CN2CCC(Nc3ncnc4sc(CC(F)(F)F)cc34)CC2)ccc2c1cc(C#N)n2CCN1CCC2(CC1)CN(S(C)(=O)=O)C2 [Compound 54]
< 50 | Cc1c(CN2CCC(Nc3ncnc4sc(CC(F)(F)F)cc34)CC2)ccc2c1cc(C#N)n2CC(C)N1CCN(S(C)(=O)=O)[C@@H](C)C1 (some centres unmarked) [Compound 13]
< 50 | Cc1c(CN2CCC(Nc3ncnc4sc(CC(F)(F)F)cc34)CC2)ccc2c1cc(C#N)n2C[C@H](C)N1CCN(CC(N)=O)CC1 [Compound 154]
< 50 | Cc1c(CN2CCC(Nc3ncnc4sc(CC(F)(F)F)cc34)CC2)ccc2c1cc(C#N)n2CCNC(=O)COCCOCCNC(=O)OC(C)(C)C [Compound 1027]
50 to 250 | Cc1c(CN2CCC(Nc3ncnc4sc(CC(F)(F)F)cc34)CC2)ccc2c1cc(C#N)n2CC(C)N1CCN(S(=O)(=O)N(C)C)CC1 (centres unmarked) [Compound 87]
50 to 250 | Cc1c(CN2CCC(Nc3ncnc4sc(CC(F)(F)F)cc34)CC2)ccc2c1cc(C#N)n2C[C@H](C)N1CCN(S(=O)(=O)CC(C)C)CC1 [Compound 116]
50 to 250 | Cc1c(CN2CCC(Nc3ncnc4sc(CC(F)(F)F)cc34)CC2)ccc2c1cc(C#N)n2C[C@H](C)N1C[C@@H](C)N(S(=O)(=O)CF)[C@@H](C)C1 [Compound 152]

Continued, molecule first:

SMILES | IC50 [nM]
CNc1nc(NC2CCN(Cc3ccc4c(cc(C#N)n4C[C@H](C)N4CCN(CC(N)=O)CC4)c3C)CC2)c2cc(CC(F)(F)F)sc2n1 [Compound 182] | < 50
Cc1c(CN2CCC(Nc3nc(N)nc4sc(CC(F)(F)F)cc34)CC2)ccc2c1cc(C#N)n2C[C@H](C)N1CCC(F)(F)CC1 [Compound 168] | 50 to 250
C=CC(=O)NC1CCN([C@@H](C)Cn2c(C#N)cc3c(C)c(CN4CCC(Nc5nc(NC)nc6sc(CC(F)(F)F)cc56)CC4)ccc32)CC1 [Compound 212] | < 50
Cc1c(CN2CCC(Nc3ncnc4sc(CC(F)(F)F)cc34)CC2)ccc2c1cc(C#N)n2C[C@H](C)N1CCN(C(=O)CC(F)(F)F)CC1 [Compound 122] | 50 to 250
Cc1c(CN2CCC(Nc3ncnc4sc(CC(F)(F)F)cc34)CC2)ccc2c1cc(C#N)n2CC(C1CC1)N1CCN(S(C)(=O)=O)CC1 (centres unmarked) [Compound 23] | > 1000
Cc1c(CN2CCC(Nc3ncnc4sc(CC(F)(F)F)cc34)CC2)ccc2c1cc(C#N)n2C[C@H](C)N1CCN(C2=NCCO2)CC1 [Compound 143] | 50 to 250
Cc1nc(NC2CCN(Cc3ccc4c(cc(C#N)n4CCN4CCC(S(C)(=O)=O)CC4)c3C)CC2)c2cc(CC(F)(F)F)sc2n1 [Compound 1021] | < 50
Cc1c(CN2CCC(Nc3nc(N)nc4sc(CC(F)(F)F)cc34)CC2)ccc2c1cc(C#N)n2C[C@H](C)N1CCN(C=O)CC1 [Compound 134] | < 50
Cc1nc(NC2CCN(Cc3ccc4c(cc(C#N)n4C[C@H](C)N4CCC(CC(=O)N(C)C)CC4)c3C)CC2)c2cc(CC(F)(F)F)sc2n1 [Compound 221] | < 50
CNc1nc(NC2CCN(Cc3ccc4c(cc(C#N)n4C[C@H](C)N4CCC(CC(=O)N(C)C)CC4)c3C)CC2)c2cc(CC(F)(F)F)sc2n1 [Compound 202] | < 50
CNS(=O)(=O)C1CCN([C@@H](C)Cn2c(C#N)cc3c(C)c(CN4CCC(Nc5nc(N)nc6sc(CC(F)(F)F)cc56)CC4)ccc32)CC1 [Compound 184] | < 50
Cc1nc(NC2CCN(Cc3ccc4c(cc(C#N)n4C[C@@H](C)N4CCN(S(C)(=O)=O)CC4)c3C)CC2)c2cc(CC(F)(F)F)sc2n1 [Compound 201] | 20 to 1000

Reference: patent publication US11673898B2, “Substituted inhibitors of menin-MLL and methods of use” (Kura Oncology, Inc., priority 2016, dated 2023)
